Reference: article PMC7594721, “Synthesis and biological activity of 2-cyanoacrylamide derivatives tethered to imidazopyridine as TAK1 inhibitors” (Journal of Enzyme Inhibition and Medicinal Chemistry, 2020)

Legend:
ASK1/MAP3K5 = target: T1, ASK1/MAP3K5 (Homo sapiens, UniProt Q99683); test: Kinase HotSpot profiling (Reaction Biology Corp.); format: biochemical; settings: ATP at Km
T1 construct: purchased Reaction Biology Corp
T1 sequence (Q99683 1-1374): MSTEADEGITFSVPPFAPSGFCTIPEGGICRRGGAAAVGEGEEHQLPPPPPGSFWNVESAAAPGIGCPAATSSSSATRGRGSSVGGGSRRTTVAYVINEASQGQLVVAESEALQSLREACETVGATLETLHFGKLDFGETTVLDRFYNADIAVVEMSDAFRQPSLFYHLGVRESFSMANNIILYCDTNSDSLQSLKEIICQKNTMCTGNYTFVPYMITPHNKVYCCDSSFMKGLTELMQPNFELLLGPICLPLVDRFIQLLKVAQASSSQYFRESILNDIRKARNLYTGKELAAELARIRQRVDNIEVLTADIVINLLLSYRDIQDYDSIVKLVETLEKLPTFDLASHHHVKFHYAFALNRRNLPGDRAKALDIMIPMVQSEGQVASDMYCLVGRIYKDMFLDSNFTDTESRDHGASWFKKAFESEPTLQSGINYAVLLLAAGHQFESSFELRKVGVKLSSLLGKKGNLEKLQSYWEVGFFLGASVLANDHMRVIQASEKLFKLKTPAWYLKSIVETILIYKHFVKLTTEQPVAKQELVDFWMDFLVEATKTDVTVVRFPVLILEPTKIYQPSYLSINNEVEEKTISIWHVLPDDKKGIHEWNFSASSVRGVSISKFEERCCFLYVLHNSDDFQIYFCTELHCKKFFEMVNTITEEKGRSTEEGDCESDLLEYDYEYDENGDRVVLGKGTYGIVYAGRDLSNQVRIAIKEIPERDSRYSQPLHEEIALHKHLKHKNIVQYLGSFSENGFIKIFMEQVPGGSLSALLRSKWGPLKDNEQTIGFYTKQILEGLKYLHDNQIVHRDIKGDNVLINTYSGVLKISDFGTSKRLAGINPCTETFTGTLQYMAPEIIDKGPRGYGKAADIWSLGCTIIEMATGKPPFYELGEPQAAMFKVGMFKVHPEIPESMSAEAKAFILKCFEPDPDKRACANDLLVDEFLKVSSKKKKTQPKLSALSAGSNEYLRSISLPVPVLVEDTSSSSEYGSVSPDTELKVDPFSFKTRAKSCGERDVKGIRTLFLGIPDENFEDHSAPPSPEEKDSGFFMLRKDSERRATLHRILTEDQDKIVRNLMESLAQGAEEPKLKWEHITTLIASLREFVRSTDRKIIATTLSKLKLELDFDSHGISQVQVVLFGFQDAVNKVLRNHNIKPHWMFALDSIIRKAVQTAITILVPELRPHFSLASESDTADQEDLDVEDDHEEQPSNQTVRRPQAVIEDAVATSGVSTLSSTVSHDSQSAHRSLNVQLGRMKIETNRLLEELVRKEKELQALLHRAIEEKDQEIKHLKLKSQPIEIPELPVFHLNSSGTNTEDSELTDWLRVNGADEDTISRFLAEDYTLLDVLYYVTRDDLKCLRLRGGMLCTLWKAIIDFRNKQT
Experimental: (§1) Kinase assays were performed by Invitrogen (now Thermo Fisher Scientific, Waltham, MA) or Reaction Biology Corp. (Malvern, PA). Inhibitory activity of compounds for TAK1 was evaluated using LanthaScreen® Eu Kinase Binding Assay (Invitrogen, Waltham, MA). The kinase profile of compound 13h was determined by the kinase HotSpot Profiling service of Reaction Biology Corporation. All assays were performed at Km for ATP.

MEK2/MAP2K2 = target: T2, MEK2/MAP2K2 (Homo sapiens, UniProt P36507); test: Kinase HotSpot profiling (Reaction Biology Corp.); format: biochemical; settings: ATP at Km
T2 construct: purchased Reaction Biology Corp
T2 sequence (P36507 whole entry): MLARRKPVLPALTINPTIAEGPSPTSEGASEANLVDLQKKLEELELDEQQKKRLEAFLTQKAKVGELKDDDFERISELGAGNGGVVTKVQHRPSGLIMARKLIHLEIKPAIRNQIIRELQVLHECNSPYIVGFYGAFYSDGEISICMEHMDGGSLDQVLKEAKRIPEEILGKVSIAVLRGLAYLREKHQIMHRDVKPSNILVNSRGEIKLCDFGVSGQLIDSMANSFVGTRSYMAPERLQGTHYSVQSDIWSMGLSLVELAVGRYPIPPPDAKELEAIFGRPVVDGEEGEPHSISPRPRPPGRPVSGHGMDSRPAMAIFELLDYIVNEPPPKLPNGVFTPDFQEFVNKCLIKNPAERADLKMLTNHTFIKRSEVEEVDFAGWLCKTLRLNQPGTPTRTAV
Experimental: as §1

MEKK1 = target: T3, MEKK1 (Homo sapiens, UniProt Q13233); test: Kinase HotSpot profiling (Reaction Biology Corp.); format: biochemical; settings: ATP at Km
T3 construct: purchased Reaction Biology Corp
T3 sequence (Q13233 whole entry): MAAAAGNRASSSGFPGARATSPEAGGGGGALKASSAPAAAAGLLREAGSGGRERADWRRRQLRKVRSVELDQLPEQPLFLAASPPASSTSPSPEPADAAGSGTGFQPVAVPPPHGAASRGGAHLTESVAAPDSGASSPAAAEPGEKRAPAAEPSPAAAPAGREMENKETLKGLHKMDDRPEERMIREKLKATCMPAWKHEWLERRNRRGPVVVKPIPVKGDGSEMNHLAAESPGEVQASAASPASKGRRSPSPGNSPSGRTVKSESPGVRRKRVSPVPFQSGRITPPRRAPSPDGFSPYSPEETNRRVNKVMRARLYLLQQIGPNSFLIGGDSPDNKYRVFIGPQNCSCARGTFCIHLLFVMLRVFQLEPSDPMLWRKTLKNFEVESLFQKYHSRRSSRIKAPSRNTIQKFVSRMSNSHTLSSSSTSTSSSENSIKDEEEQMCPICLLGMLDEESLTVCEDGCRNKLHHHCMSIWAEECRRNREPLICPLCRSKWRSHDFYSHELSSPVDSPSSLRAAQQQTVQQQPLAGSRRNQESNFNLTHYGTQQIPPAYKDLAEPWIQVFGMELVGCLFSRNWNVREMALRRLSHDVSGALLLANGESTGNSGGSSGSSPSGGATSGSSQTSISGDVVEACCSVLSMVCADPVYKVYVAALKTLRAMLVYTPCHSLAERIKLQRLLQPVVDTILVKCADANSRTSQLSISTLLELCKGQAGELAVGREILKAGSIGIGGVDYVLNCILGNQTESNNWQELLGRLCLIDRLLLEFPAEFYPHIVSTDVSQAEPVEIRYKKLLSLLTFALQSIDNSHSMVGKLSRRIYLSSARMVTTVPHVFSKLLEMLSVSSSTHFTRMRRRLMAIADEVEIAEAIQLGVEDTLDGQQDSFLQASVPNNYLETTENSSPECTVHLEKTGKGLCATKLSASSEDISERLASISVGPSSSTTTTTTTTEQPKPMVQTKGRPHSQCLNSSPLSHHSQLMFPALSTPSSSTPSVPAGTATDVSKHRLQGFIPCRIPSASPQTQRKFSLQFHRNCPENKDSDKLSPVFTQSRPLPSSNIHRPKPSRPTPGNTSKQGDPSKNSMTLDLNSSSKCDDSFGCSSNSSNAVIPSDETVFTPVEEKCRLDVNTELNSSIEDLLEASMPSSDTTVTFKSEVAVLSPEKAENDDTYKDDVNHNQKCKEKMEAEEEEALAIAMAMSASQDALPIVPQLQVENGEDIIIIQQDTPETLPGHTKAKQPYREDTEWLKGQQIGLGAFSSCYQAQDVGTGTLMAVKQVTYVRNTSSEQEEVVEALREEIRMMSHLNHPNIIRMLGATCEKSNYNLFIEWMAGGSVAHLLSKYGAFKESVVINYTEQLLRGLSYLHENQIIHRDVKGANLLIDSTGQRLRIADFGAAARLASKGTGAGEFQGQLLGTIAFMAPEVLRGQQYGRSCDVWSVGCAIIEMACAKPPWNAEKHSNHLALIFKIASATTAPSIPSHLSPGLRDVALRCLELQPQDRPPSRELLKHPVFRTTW
Experimental: as §1

MINK1/MAP4K6 = target: T4, MINK1/MAP4K6 (Homo sapiens, UniProt Q8N4C8); test: Kinase HotSpot profiling (Reaction Biology Corp.); format: biochemical; settings: ATP at Km
T4 construct: purchased Reaction Biology Corp
T4 sequence (Q8N4C8 whole entry): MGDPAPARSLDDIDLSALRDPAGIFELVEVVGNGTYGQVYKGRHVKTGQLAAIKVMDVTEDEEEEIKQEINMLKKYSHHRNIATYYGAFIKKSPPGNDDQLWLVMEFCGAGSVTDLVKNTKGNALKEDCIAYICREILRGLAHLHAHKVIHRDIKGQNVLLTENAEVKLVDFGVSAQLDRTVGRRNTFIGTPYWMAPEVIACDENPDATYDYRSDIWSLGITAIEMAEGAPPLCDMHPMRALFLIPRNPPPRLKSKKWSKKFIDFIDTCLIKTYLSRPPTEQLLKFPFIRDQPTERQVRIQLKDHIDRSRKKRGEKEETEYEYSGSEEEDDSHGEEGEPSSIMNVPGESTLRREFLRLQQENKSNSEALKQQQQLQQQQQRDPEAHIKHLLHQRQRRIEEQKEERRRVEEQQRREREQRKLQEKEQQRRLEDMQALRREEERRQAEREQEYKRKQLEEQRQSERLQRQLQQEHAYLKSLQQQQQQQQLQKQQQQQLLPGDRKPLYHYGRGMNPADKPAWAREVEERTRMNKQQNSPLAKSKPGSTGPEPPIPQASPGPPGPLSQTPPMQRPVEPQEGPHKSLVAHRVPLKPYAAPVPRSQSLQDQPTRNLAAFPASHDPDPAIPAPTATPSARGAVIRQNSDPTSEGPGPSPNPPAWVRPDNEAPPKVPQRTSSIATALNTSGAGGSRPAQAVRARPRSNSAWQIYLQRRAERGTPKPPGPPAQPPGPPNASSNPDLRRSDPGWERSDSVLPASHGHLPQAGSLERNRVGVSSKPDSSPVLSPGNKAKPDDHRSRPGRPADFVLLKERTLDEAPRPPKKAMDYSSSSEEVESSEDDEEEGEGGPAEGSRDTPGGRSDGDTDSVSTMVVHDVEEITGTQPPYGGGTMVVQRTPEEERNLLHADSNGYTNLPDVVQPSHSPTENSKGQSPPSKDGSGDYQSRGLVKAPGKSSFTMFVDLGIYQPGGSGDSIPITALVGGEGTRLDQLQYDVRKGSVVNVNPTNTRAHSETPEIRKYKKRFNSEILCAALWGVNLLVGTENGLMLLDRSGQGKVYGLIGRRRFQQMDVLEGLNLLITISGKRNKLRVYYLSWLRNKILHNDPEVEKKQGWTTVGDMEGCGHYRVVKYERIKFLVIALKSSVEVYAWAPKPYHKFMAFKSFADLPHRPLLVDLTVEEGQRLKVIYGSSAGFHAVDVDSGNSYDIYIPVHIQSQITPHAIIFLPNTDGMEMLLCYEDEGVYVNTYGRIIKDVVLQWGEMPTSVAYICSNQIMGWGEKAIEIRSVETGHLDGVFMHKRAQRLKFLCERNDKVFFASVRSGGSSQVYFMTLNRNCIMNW
Experimental: as §1

MDA-MB-231 cells = test: Caspase-3/7 assay (Apo-ONE); format: cell-based; settings: 0.5 µM, presence of TNFα (10 ng/ml), 24 h, MDA-MB-231
Experimental: MDA-MB-231 cells were obtained from the Korean Cell Line Bank. Cells were cultured in Roswell Park Memorial Institute (RPMI) 1640 medium containing 10% foetal bovine serum and 1% penicillin/streptomycin at 37 °C with 5% CO2 under humidified atmosphere.
The assay was performed using Apo-ONE® Homogeneous Caspase-3/7 Assay kits (Catalogue No. G7790, Promega, Madison, WI). MDA-MB-231 cells in a concentration of 5000 cells/100 µl were seeded in each well of a black 96-well plate and starved after adhering to the plate. The cells were incubated for 24 h, and the serum-starved cells were treated with either Takinib or 13h in the presence or absence of TNFα (10 ng/ml). All samples and the control contained DMSO in a final concentration of 0.5%. After another 24 h of incubation, 100 µL of Apo-ONE® caspase-3/7 reagent was added to each well, and the cells were incubated at room temperature in darkness for 2 h. Fluorescence was then measured at 530 nm with excitation at 485 nm using a FlexStation 3 Multi-Mode microplate reader (Molecular Devices). Statistical analyses of the data included a one-way ANOVA, followed by Tukey’s multiple comparison test.

With `Cc1cccc(/C=C(\C#N)C(=O)N[C@@H]2CCN(c3c(Cl)cnc4[nH]c(-c5ccc(N6CCN(C)CC6)cc5)nc34)C2)n1` [Compound 13h, (R,E)-N-(1–(6-chloro-2–(4-(4-methylpiperazin-1-yl)phenyl)-3H-imidazo[4,5-b]pyridin-7-yl)pyrrolidin-3-yl)-2-cyano-3-(6-methylpyridin-2-yl)acrylamide] the inhibition at 1 µM (ASK1/MAP3K5) was 4%, the inhibition at 1 µM (MEK2/MAP2K2) was 23 ± 1.9% and the inhibition at 1 µM (MEKK1) was 12 ± 0.7%. The inhibition at 1 µM (MINK1/MAP4K6) was 15 ± 2.4% and the caspase-3/7 activity (MDA-MB-231 cells) was “induced significant caspase activation”.
